According to US8192962B2, “Processes for detecting toxic substances” (Daikin Industries, Ltd., priority 2001, dated 2012):

System: Stress protein genes
Experiment: DNA chip mRNA expression in yeast, stress protein genes (Table 6)
Type: cell-based, Saccharomyces cerevisiae S288C
Experimental: Yeast (Saccharomyces cerevisiae S288C (α SUC2mal mel gap2 CUP1)) were incubated at 25° C. on YPD medium (yeast extract 1%, polypepton 2%, glucose 2%). One of toxic chemical substances was added to the cells at logarithmic growth phase, and the cells were further incubated for two hours. Cells were cultured without any chemical substance in the same condition, and were used as control. Concentrations of the chemical substances were defined to inhibit the growth of the yeast but not lead to death.
After completion of the incubation, the culture was centrifuged to collect the cells. To the cells, sodium acetate buffer (50 mM sodium acetate, 10 mM EDTA, 1% SDS) was added, and the mixture was shaken at 65° C. for five minutes, followed by returning to room temperature, and obtaining the supernatant, of which the procedures were repeated two times. To the supernatant, ½ amount of a solution of phenol/chloroform was added, and the mixture was centrifuged to give a supernatant, which was added with an equal amount of chloroform, and the mixture was centrifuged to give a supernatant. To the supernatant, an equal amount of isopropanol containing 0.3 M sodium acetate was added, and the mixture was allowed to stand at room temperature for 30 minutes, after which the mixture was centrifuged to give a sediment of the whole RNAs. Seventy % ethanol was added to the sediment, and the mixture was again centrifuged to give a sediment, which was then dried and dissolved in water. mRNA was isolated from the whole RNAs as followings. In view of the fact that a poly A chain is attached to the 3′ terminus of mRNA, a polynucleotide having a poly T structure which was immobilized on the surface of latex beads was used to trap the mRNA, and then the mRNA was washed and eluted with spine column (Oligotex-dT30<Super>mRNA Purification Kit, Takara). Reverse transcription of the mRNA was conducted with a reverse transcriptase (Super Script II Reverse Transcriptase; catalogue No. 18064-014, GibcoBRL) using fluorescence-labeled nucleotides to give cDNAs that were introduced with Cy3-dUTP or Cy5-dUTP during the reverse transcription.
The labeled cDNAs were dissolved in TE buffer (10mM Tris-HCl/1 mM EDTA, pH8.0), and the solution was dropped on the DNA chip containing the whole genes of yeast (DNA Chip Research Inc. Japan) so that the cDNAs were hybridized on the DNA chip at 65° C. for over 12 hours. The fluoresces intensity of the DNA chip was read with a scanner, and the ratio relative to the fluorescence intensity resulting from the absence of chemical substance was estimated as the following, which is shown in Tables 1 to 9: […]

For Na2As [(1)], the “The level of expressed mRNA in the presence of chemical substance/The level of expressed mRNA in the absence of chemical substance” value (yeast gene YIL033C) was 0.8, the “The level of expressed mRNA in the presence of chemical substance/The level of expressed mRNA in the absence of chemical substance” value (yeast gene YIR037W) was 1.4 and the “The level of expressed mRNA in the presence of chemical substance/The level of expressed mRNA in the absence of chemical substance” value (yeast gene YIR038C) was 1.3. The “The level of expressed mRNA in the presence of chemical substance/The level of expressed mRNA in the absence of chemical substance” value (yeast gene YJL128C) was 0.8, the “The level of expressed mRNA in the presence of chemical substance/The level of expressed mRNA in the absence of chemical substance” value (yeast gene YJL158C) was 0.9 and the “The level of expressed mRNA in the presence of chemical substance/The level of expressed mRNA in the absence of chemical substance” value (yeast gene YJL159W) was 1.0. For the same substance, the “The level of expressed mRNA in the presence of chemical substance/The level of expressed mRNA in the absence of chemical substance” value (yeast gene YJL165C) was 1.0, the “The level of expressed mRNA in the presence of chemical substance/The level of expressed mRNA in the absence of chemical substance” value (yeast gene YJR045C) was 0.5 and the “The level of expressed mRNA in the presence of chemical substance/The level of expressed mRNA in the absence of chemical substance” value (yeast gene YJR090C) was 0.8. For the same substance, the “The level of expressed mRNA in the presence of chemical substance/The level of expressed mRNA in the absence of chemical substance” value (yeast gene YKL161C) was 4.2, the “The level of expressed mRNA in the presence of chemical substance/The level of expressed mRNA in the absence of chemical substance” value (yeast gene YKL163W) was 1.1 and the “The level of expressed mRNA in the presence of chemical substance/The level of expressed mRNA in the absence of chemical substance” value (yeast gene YKL164C) was 0.6. For the same substance, the “The level of expressed mRNA in the presence of chemical substance/The level of expressed mRNA in the absence of chemical substance” value (yeast gene YKL210W) was 0.5, the “The level of expressed mRNA in the presence of chemical substance/The level of expressed mRNA in the absence of chemical substance” value (yeast gene YKR053C) was 0.9 and the “The level of expressed mRNA in the presence of chemical substance/The level of expressed mRNA in the absence of chemical substance” value (yeast gene YLL024C) was 0.5. The “The level of expressed mRNA in the presence of chemical substance/The level of expressed mRNA in the absence of chemical substance” value (yeast gene YLL026W) was 1.8, the “The level of expressed mRNA in the presence of chemical substance/The level of expressed mRNA in the absence of chemical substance” value (yeast gene YLL039C) was 1.1 and the “The level of expressed mRNA in the presence of chemical substance/The level of expressed mRNA in the absence of chemical substance” value (yeast gene YLL060C) was 12.5. The “The level of expressed mRNA in the presence of chemical substance/The level of expressed mRNA in the absence of chemical substance” value (yeast gene YLR006C) was 0.7, the “The level of expressed mRNA in the presence of chemical substance/The level of expressed mRNA in the absence of chemical substance” value (yeast gene YLR109W) was 0.8 and the “The level of expressed mRNA in the presence of chemical substance/The level of expressed mRNA in the absence of chemical substance” value (yeast gene YLR259C) was 0.7. The “The level of expressed mRNA in the presence of chemical substance/The level of expressed mRNA in the absence of chemical substance” value (yeast gene YML007W) was 0.9, the “The level of expressed mRNA in the presence of chemical substance/The level of expressed mRNA in the absence of chemical substance” value (yeast gene YML070W) was 0.9 and the “The level of expressed mRNA in the presence of chemical substance/The level of expressed mRNA in the absence of chemical substance” value (yeast gene YMR021C) was 1.0. The “The level of expressed mRNA in the presence of chemical substance/The level of expressed mRNA in the absence of chemical substance” value (yeast gene YMR173W) was 1.5, the “The level of expressed mRNA in the presence of chemical substance/The level of expressed mRNA in the absence of chemical substance” value (yeast gene YMR186W) was 0.6 and the “The level of expressed mRNA in the presence of chemical substance/The level of expressed mRNA in the absence of chemical substance” value (yeast gene YNL064C) was 0.9. The “The level of expressed mRNA in the presence of chemical substance/The level of expressed mRNA in the absence of chemical substance” value (yeast gene YNL160W) was 2.1, the “The level of expressed mRNA in the presence of chemical substance/The level of expressed mRNA in the absence of chemical substance” value (yeast gene YNL241C) was 1.3 and the “The level of expressed mRNA in the presence of chemical substance/The level of expressed mRNA in the absence of chemical substance” value (yeast gene YNR076W) was 1.3. For the same substance, the “The level of expressed mRNA in the presence of chemical substance/The level of expressed mRNA in the absence of chemical substance” value (yeast gene YOL064C) was 1.4, the “The level of expressed mRNA in the presence of chemical substance/The level of expressed mRNA in the absence of chemical substance” value (yeast gene YOL161C) was 1.2 and the “The level of expressed mRNA in the presence of chemical substance/The level of expressed mRNA in the absence of chemical substance” value (yeast gene YOR008C) was 0.7. For the same substance, the “The level of expressed mRNA in the presence of chemical substance/The level of expressed mRNA in the absence of chemical substance” value (yeast gene YOR009W) was 0.9, the “The level of expressed mRNA in the presence of chemical substance/The level of expressed mRNA in the absence of chemical substance” value (yeast gene YOR010C) was 0.7 and the “The level of expressed mRNA in the presence of chemical substance/The level of expressed mRNA in the absence of chemical substance” value (yeast gene YOR027W) was 0.7. For the same substance, the “The level of expressed mRNA in the presence of chemical substance/The level of expressed mRNA in the absence of chemical substance” value (yeast gene YOR208W) was 1.3, the “The level of expressed mRNA in the presence of chemical substance/The level of expressed mRNA in the absence of chemical substance” value (yeast gene YPL059W) was 1.2 and the “The level of expressed mRNA in the presence of chemical substance/The level of expressed mRNA in the absence of chemical substance” value (yeast gene YPL106C) was 0.6. For the same substance, the “The level of expressed mRNA in the presence of chemical substance/The level of expressed mRNA in the absence of chemical substance” value (yeast gene YPL140C) was 0.9, the “The level of expressed mRNA in the presence of chemical substance/The level of expressed mRNA in the absence of chemical substance” value (yeast gene YPL194W) was 0.9 and the “The level of expressed mRNA in the presence of chemical substance/The level of expressed mRNA in the absence of chemical substance” value (yeast gene YPL223C) was 4.8. The “The level of expressed mRNA in the presence of chemical substance/The level of expressed mRNA in the absence of chemical substance” value (yeast gene YPL240C) was 0.7, the “The level of expressed mRNA in the presence of chemical substance/The level of expressed mRNA in the absence of chemical substance” value (yeast gene YPR005C) was 1.3 and the “The level of expressed mRNA in the presence of chemical substance/The level of expressed mRNA in the absence of chemical substance” value (yeast gene YPR026W) was 0.9.
